Converted amounts (≈) assume the structure as drawn.
Legend:
[1] = test system: P. aeruginosa (PA); assay: MIC by microdilution, 36 clinical and laboratory strains with known efflux phenotype; type: cell-based
Outline: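 Microdilution MICs against P. aeruginosa, including reference PAO1 and efflux-overexpressing clinical PA12, in cation-adjusted Mueller-Hinton broth or RPMI with 10% fetal calf serum, or MH broth with increasing serum. PaβN (50 mg/L) served as efflux inhibitor and EGTA (5 mM) as outer-membrane disruptor.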

[2] = test system: TNFα release; assay: LPS-induced TNFα release in PMA-differentiated U937 cells (ELISA); type: cell-based, human
Outline: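 U937 cells differentiated to macrophage-like state with PMA (50 ng/mL, 48 h) in RPMI/10% FBS, then stimulated with LPS in presence of macrolides. TNFα in supernatant measured by sandwich ELISA; means±SEM of three experiments, IC50 computed from cytokine inhibition.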

[3] = Tissue distribution; type: in vivo; details: rat
Method: CEM-101 is well absorbed and distributed to the tissue. In the rat at 250 mg/kg/d, mean lung and liver concentrations 5 of CEM-101 were 17 and 15-fold higher than in plasma.

[4] = test system: MMP9 activity; assay: PMA-induced MMP9 activation in U937 cells (gelatin zymography); type: cell-based, human; details: read-out: IC50, PMA-induced MMP9 activation
Outline: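 U937 monocytes differentiated to macrophage-like cells with PMA (50 ng/mL, 48 h) and exposed to macrolides; supernatants taken after 48 h. MMP9 activity read by gelatin zymography (10% gel, overnight development at 37 °C, colloidal blue stain), relative to standard; IC50 calculated.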

In the case of CC[C@H]1OC(=O)[C@@](C)(F)C(=O)[C@H](C)[C@@H](O[C@@H]2O[C@H](C)C[C@H](N(C)C)[C@H]2O)[C@](C)(OC)C[C@@H](C)C(=O)[C@H](C)[C@H]2N(CCCCn3cc(-c4cccc(N)c4)nn3)C(=O)O[C@]12C [CEM-101, solithromycin], the “difference in MIC in the presence of efflux pump inhibitors” value ([1]; compared with the other macrolides, Table 2 strains) is reported as “smaller difference”, the MIC ([1]; strain 1, efflux AB+, MHB) is reported as 128 µg/mL (≈ 151 µM) and the MIC ([1]; strain 1, efflux AB+, RPMI) is reported as 2 µg/mL (≈ 2.37 µM). For the same compound, the MIC ([1]; strain 2, efflux CD+, MHB) was 256 µg/mL (≈ 303 µM), the MIC ([1]; strain 2, efflux CD+, RPMI) was 8 µg/mL (≈ 9.47 µM) and the MIC ([1]; strain 3, efflux EF+, MHB) was 8 µg/mL (≈ 9.47 µM). The MIC ([1]; strain 3, efflux EF+, RPMI) was 1 µg/mL (≈ 1.18 µM), the MIC ([1]; strain 4, efflux XY+, MHB) was 128 µg/mL (≈ 151 µM) and the MIC ([1]; strain 4, efflux XY+, RPMI) was 4 µg/mL (≈ 4.73 µM). It also gave an MIC ([1]; strain 11, efflux AB + CD+, MHB) of 16 µg/mL, an MIC ([1]; strain 11, efflux AB + CD+, RPMI) of 2 µg/mL and an MIC ([1]; strain 12, efflux AB + CD + EF + XY+, MHB) of 128 µg/mL. For the same compound, the MIC ([1]; strain 12, efflux AB + CD + EF + XY+, RPMI) was 4 µg/mL, the MIC ([1]; strain 16, efflux AB + XY+, MHB) was 32 µg/mL and the MIC ([1]; strain 16, efflux AB + XY+, RPMI) was 4 µg/mL. For the same compound, the MIC ([1]; strain 21, efflux AB+, MHB) was 128 µg/mL (≈ 151 µM), the MIC ([1]; strain 21, efflux AB+, RPMI) was 4 µg/mL (≈ 4.73 µM) and the MIC ([1]; strain 22, efflux XY+, MHB) was 64 µg/mL (≈ 75.7 µM). It also gave an MIC ([1]; strain 22, efflux XY+, RPMI) of 4 µg/mL (≈ 4.73 µM), an MIC ([1]; strain 40, efflux EF+, MHB) of 32 µg/mL (≈ 37.9 µM) and an MIC ([1]; strain 40, efflux EF+, RPMI) of 4 µg/mL (≈ 4.73 µM). It also gave an MIC ([1]; strain 41, efflux CD+, MHB) of 256 µg/mL (≈ 303 µM), an MIC ([1]; strain 41, efflux CD+, RPMI) of 4 µg/mL (≈ 4.73 µM) and an MIC ([1]; strain 48, efflux CD + EF + XY+, MHB) of 128 µg/mL. The MIC ([1]; strain 48, efflux CD + EF + XY+, RPMI) was 4 µg/mL, the MIC ([1]; strain 49, efflux CD + EF + XY+, MHB) was 128 µg/mL and the MIC ([1]; strain 49, efflux CD + EF + XY+, RPMI) was 4 µg/mL. It also gave an MIC ([1]; strain 63, efflux AB + EF + XY+, MHB) of 64 µg/mL, an MIC ([1]; strain 63, efflux AB + EF + XY+, RPMI) of 4 µg/mL and an MIC ([1]; strain 68, efflux AB + XY+, MHB) of 64 µg/mL. It also gave an MIC ([1]; strain 68, efflux AB + XY+, RPMI) of 4 µg/mL, an MIC ([1]; strain 133, efflux EF + XY+, MHB) of 64 µg/mL and an MIC ([1]; strain 133, efflux EF + XY+, RPMI) of 4 µg/mL. It also gave an MIC ([1]; strain 156, efflux EF + XY+, MHB) of 64 µg/mL, an MIC ([1]; strain 156, efflux EF + XY+, RPMI) of 2 µg/mL and an MIC ([1]; strain 168B, efflux CD + XY+, MHB) of 128 µg/mL. The MIC ([1]; strain 168B, efflux CD + XY+, RPMI) was 4 µg/mL, the MIC ([1]; strain 207, efflux AB + EF + XY+, MHB) was 32 µg/mL and the MIC ([1]; strain 207, efflux AB + EF + XY+, RPMI) was 4 µg/mL. It also gave an MIC ([1]; strain 266B, efflux AB + CD+, MHB) of 256 µg/mL, an MIC ([1]; strain 266B, efflux AB + CD+, RPMI) of 4 µg/mL and an MIC ([1]; strain 333A, efflux AB + EF+, MHB) of 128 µg/mL. For the same compound, the MIC ([1]; strain 333A, efflux AB + EF+, RPMI) was 2 µg/mL, the MIC ([1]; strain 335, efflux AB + EF+, MHB) was 128 µg/mL and the MIC ([1]; strain 335, efflux AB + EF+, RPMI) was 2 µg/mL. The MIC ([1]; strain 391, efflux EF−, MHB) was 32 µg/mL (≈ 37.9 µM), the MIC ([1]; strain 391, efflux EF−, RPMI) was 2 µg/mL (≈ 2.37 µM) and the MIC ([1]; strain 392, efflux CD−, MHB) was 16 µg/mL (≈ 18.9 µM). It also gave an MIC ([1]; strain 392, efflux CD−, RPMI) of 1 µg/mL (≈ 1.18 µM), an MIC ([1]; strain 394, efflux XY−, MHB) of 32 µg/mL (≈ 37.9 µM) and an MIC ([1]; strain 394, efflux XY−, RPMI) of 4 µg/mL (≈ 4.73 µM). It also gave an MIC ([1]; strain 395, efflux HI−, MHB) of 64 µg/mL (≈ 75.7 µM), an MIC ([1]; strain 395, efflux HI−, RPMI) of 2 µg/mL (≈ 2.37 µM) and an MIC ([1]; strain 396, ompH−, MHB) of 8 µg/mL (≈ 9.47 µM). The MIC ([1]; strain 396, ompH−, RPMI) was 2 µg/mL (≈ 2.37 µM), the MIC ([1]; strain 397, efflux AB−, MHB) was 2 µg/mL (≈ 2.37 µM) and the MIC ([1]; strain 397, efflux AB−, RPMI) was 1 µg/mL (≈ 1.18 µM). The MIC ([1]; strain 398, efflux CD−, MHB) was 4 µg/mL (≈ 4.73 µM), the MIC ([1]; strain 398, efflux CD−, RPMI) was 2 µg/mL (≈ 2.37 µM) and the MIC ([1]; strain 399, efflux AB − EF−, MHB) was 8 µg/mL (≈ 9.47 µM). It also gave an MIC ([1]; strain 399, efflux AB − EF−, RPMI) of 1 µg/mL (≈ 1.18 µM), an MIC ([1]; strain 400, efflux XY−, MHB) of 4 µg/mL (≈ 4.73 µM) and an MIC ([1]; strain 400, efflux XY−, RPMI) of 1 µg/mL (≈ 1.18 µM). It also gave an MIC ([1]; strain 401, ompH−, MHB) of 2 µg/mL (≈ 2.37 µM), an MIC ([1]; strain 401, ompH−, RPMI) of 2 µg/mL (≈ 2.37 µM) and an MIC ([1]; strain 403, efflux AB − CD − EF − XY−, MHB) of 4 µg/mL (≈ 4.73 µM). For the same compound, the MIC ([1]; strain 403, efflux AB − CD − EF − XY−, RPMI) was 1 µg/mL (≈ 1.18 µM), the MIC ([1]; strain 405, efflux AB − CD − EF − XY−, MHB) was 4 µg/mL (≈ 4.73 µM) and the MIC ([1]; strain 405, efflux AB − CD − EF − XY−, RPMI) was 1 µg/mL (≈ 1.18 µM). The MIC ([1]; strain 434, efflux AB + CD + XY+, MHB) was 128 µg/mL, the MIC ([1]; strain 434, efflux AB + CD + XY+, RPMI) was 8 µg/mL and the MIC ([1]; strain PAO1, REFERENCE, MHB) was 128 µg/mL (≈ 151 µM). For the same compound, the MIC ([1]; strain PAO1, REFERENCE, RPMI) was 4 µg/mL (≈ 4.73 µM), the IC50 ([2]; PMA-differentiated U937 cells, read-out: IC50, LPS-induced TNFα release) was 41.6 ± 1.9 µM and the “effect on TNFα production” value ([2]; at 100 μM) was “significantly inhibited”. For the same compound, the “heart concentration relative to plasma” value [3] was 5 fold, the “mean liver concentration relative to plasma” value ([3]; 250 mg/kg/d) was 15 fold and the “mean lung concentration relative to plasma” value ([3]; 250 mg/kg/d) was 17 fold. The IC50 [4] was 14.9 ± 3.1 µM.
